# Source: patent US7351747B2, “Skin treatment for relief of itch” (priority 2003, dated 2008)
# System: skin itch
# Test: Topical application of chlorhydrate composition to individuals with skin itch
# Assay type: in vivo, human
# Protocol: Three individuals, each complaining of skin itch of undetermined origin, were treated as follows. A composition was prepared at a concentration of aluminum chlorhydrate of about 10 to about 20 weight percent in water and further including a small quantity of a quaternary ammonium compound as a preservative.
# An adult individual has applied 30% wt. of aluminum chlorhydrate in a topical cream to an area of the forearm experiencing itch.
# An adult complains of itch on their legs.
# An adult complaining of itch on their forearms and legs applies an ointment composition including 25% wt. of aluminum zirconium chlorhydrate to the affected areas.
# An aqueous composition comprising aluminum chlorhydrate at a concentration of about 20 weight percent is applied to a synthetic fabric wipe and sealed in a tear-open pouch. Subsequently, an adult experiencing itch on their forearms tears open the pouch and wipes the area of the skin with the moist wipe; the wipe and pouch are discarded after use.
# [1] = adult male, forearms and legs, ointment composition including 25% wt.
# [2] = adult female, legs, 30% wt. in a lotion
# [3] = adult male, forearms, aqueous composition about 20 weight percent on synthetic fabric wipe
substance,measurement,setting,value
aluminum zirconium chlorhydrate,duration of relief of itch,[1],about 24 hours
same,time to relief of itch,[1],within minutes
aluminum chlorhydrate,duration of relief of itch,[2],about 24 hours
same,time to relief of itch,[2],within a few minutes
same,relief of skin itch,"adult individual, forearm, 30% wt. in a topical cream, no other active agent",relieves the skin itch
same,duration of relief from itching,[3],about a day
same,time to relief from itching,[3],within minutes
same,time to relief from itching,"three adults (one male, two female), skin itch of undetermined origin, about 10 to about 20 weight percent in water with quaternary ammonium preservative, pump spray",within a few minutes
same,duration of relief from itching,"three adults, skin itch of undetermined origin, about 10 to about 20 weight percent in water, pump spray",about one day
same,adverse side effects,"three adults, about 10 to about 20 weight percent in water, pump spray to itching skin",No adverse side effects were reported
